# Test results as given in patent publication US20250099448A1, “HETEROCYCLIC COMPOUNDS” (Hoffmann-La Roche Inc., priority 2022, published 2025).
# Molecular target: T1, MAGL protein (Homo sapiens, UniProt Q99685)
# T1 sequence (Q99685 1-303): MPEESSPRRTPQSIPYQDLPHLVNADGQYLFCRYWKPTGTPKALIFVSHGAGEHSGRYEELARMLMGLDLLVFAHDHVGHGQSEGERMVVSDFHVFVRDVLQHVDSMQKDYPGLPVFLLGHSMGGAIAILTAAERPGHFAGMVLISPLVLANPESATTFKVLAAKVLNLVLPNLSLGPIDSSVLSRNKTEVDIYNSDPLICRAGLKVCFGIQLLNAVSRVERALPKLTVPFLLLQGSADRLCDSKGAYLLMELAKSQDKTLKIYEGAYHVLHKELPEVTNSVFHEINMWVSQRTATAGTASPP
# Test: 2-AG assay: MAGL inhibitory activity by hydrolysis of 2-arachidonoylglycerol to arachidonic acid, followed by mass spectrometry
# Format: biochemical
# Details: 8 μM 2-arachidonoylglycerol, 15 min preincubation, 30 min reaction at RT, RapidFire MS readout
# Outline: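 MAGL was preincubated 15 min at RT with compound (12.5 to […], 3-fold steps) in 50 mM TRIS, 1 mM EDTA, 0.01% Tween-20, 2.5% DMSO. The reaction ran 30 min at RT with 8 μM 2-AG. Arachidonic acid was quantified by RapidFire SPE-MS/MS against a d8-arachidonic acid internal standard.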
row,Structure (SMILES),IC50 [nM]
1,O=C(N1CC2(CC(c3nc(C4CC4)n[nH]3)C2)C1)N1CC2(CC[C@@H](Cc3ccc(S(=O)(=O)C(F)(F)F)cc3)C2)C1 [compound 612],0.13
2,CC(C)(C)Cc1ccc(C2CN(C(=O)N3CC4(CC(c5nnc(C6CC6)[nH]5)C4)C3)C2)cn1 [compound 299],0.05
3,N#Cc1ccc(CC2CC3(C2)CN(C(=O)N2CC4(CC(c5nc(C6CC6)n[nH]5)C4)C2)C3)cc1C(F)(F)F [compound 590],0.34
4,CCc1nsc(CN2CC3(C2)CN(C(=O)N2CC4(CC(c5nc(C6CC6)n[nH]5)C4)C2)C3)n1 [compound 762],35.7
5,O=C(N1CC(c2ccc(NCC3(C(F)(F)F)CC3)nc2)C1)N1CC2(CC(c3nnc(C4(O)CC4)[nH]3)C2)C1 [compound 254],1.25
6,CP(C)(=O)c1cc(CC2CC3(C2)CN(C(=O)N2CC4(CC(c5nnc(C6CC6)[nH]5)C4)C2)C3)cc(C(F)(F)F)c1 [compound 884],1.47
7,O=C(N1CC2(CC(Cc3cc(C(F)(F)F)n[nH]3)C2)C1)N1CC2(CC(c3nc(C4CC4)n[nH]3)C2)C1 [compound 404],0.29
8,N#Cc1cnn(CC2CC3(C2)CN(C(=O)N2CC4(CC(c5nc(C6(O)CC6)n[nH]5)C4)C2)C3)c1 [compound 719],68.9
9,O=C(N1CC2(CC(c3nc(C4CC4)n[nH]3)C2)C1)N1CC2(CN(Cc3ccnn3C(F)(F)F)C2)C1 [compound 656],39.7
10,CS(=O)(=O)c1ccc(COC2CN(C(=O)N3CC4(CC(c5nnc(C6CC6)[nH]5)C4)C3)C2)c(F)c1 [compound 330],59.9
11,"O=C(N1CC2(CC(c3nc(C4CC4)n[nH]3)C2)C1)N1CC2(CC(n3cnc(O)n3)C2)C1 [Example 648, [6-(3-cyclopropyl-1H-1,2,4-triazol-5-yl)-2-azaspiro[3.3]heptan-2-yl]-[6-(3-hydroxy-1,2,4-triazol-1-yl)-2-azaspiro[3.3]heptan-2-yl]methanone]",1500
12,O=C(N1CC2(CC(c3nc(C4(O)CC4)n[nH]3)C2)C1)N1CC2(CC(C(F)(F)c3ccc(C(F)(F)F)nn3)C2)C1 [compound 448],8.2
13,O=C(N1CC2(CC(Cc3ncc(Cl)cc3F)C2)C1)N1CC2(CC(c3nc(C4CC(F)(F)C4)n[nH]3)C2)C1 [compound 737],12
14,O=C(N1CC2(CC(c3nnc(C4CC4)[nH]3)C2)C1)N1CC2(C1)CN(S(=O)(=O)NCC1(C(F)(F)F)CC1)C2 [compound 216],11
15,Cn1ncc(C(F)(F)F)c1CN1CC2(C1)CN(C(=O)N1CC3(CC(c4nc(C5CC5)n[nH]4)C3)C1)C2 [compound 664],2.74
16,O=C(N1CC2(CC(Cc3nnc(C4(C(F)(F)F)CC4)o3)C2)C1)N1CC2(CC(c3nc(C4(F)CC4)n[nH]3)C2)C1 [compound 792],1.98
17,O=C(N1CC2(CC(c3nnc(C4CC4)[nH]3)C2)C1)N1CC2(CN(Cc3cnc(C(F)(F)F)nc3)C2)C1 [compound 162],32.7
18,COCn1cnc(-c2ccccc2CN2CC3(C2)CN(C(=O)N2CC4(CC(c5nnc(C6CC6)[nH]5)C4)C2)C3)n1 [compound 174],40.7
19,O=C(N1CC2(CC(c3cncc(F)c3)C2)C1)N1CC2(CC(c3nnc(C4CC4)[nH]3)C2)C1 [compound 497],22.3

row,Structure (SMILES),IC50 [nM]
1,O=C(N1CC2(CC(Cc3ccc(OC(F)(F)F)cn3)C2)C1)N1CC2(CC(c3ncn[nH]3)C2)C1 [compound 721],544
2,O=C(N1CC2(CC(Cc3nc(C(F)(F)F)cs3)C2)C1)N1CC2(CC(c3nc(C4COC4)n[nH]3)C2)C1 [compound 783],33.7
3,O=C(N1CC(NCc2cc(Cl)cc(C(F)(F)F)c2)C1)N1CC2(CC(c3nnc(C4CC4)[nH]3)C2)C1 [compound 194],18.4
4,COc1cc(C(F)(F)F)ccc1CNC1CN(C(=O)N2CC3(CC(c4nnc(C5CC5)[nH]4)C3)C2)C1 [compound 197],15.6
5,O=C(N1CC(NCc2ccc(OC(F)(F)F)cc2F)C1)N1CC2(CC(c3nnc(C4CC4)[nH]3)C2)C1 [compound 189],38.6
6,Cc1nc(C)c(CN2CC3(C2)CN(C(=O)N2CC4(CC(c5nnc(C6CC6)[nH]5)C4)C2)C3)o1 [compound 898],218
7,O=C(N1CC2(CC(Cc3nc(C(F)(F)F)ns3)C2)C1)N1CC2(CC(c3nnc(C4CC4)[nH]3)C2)C1 [compound 59],0.53
8,"NC(=O)[C@@H]1CC(F)(F)CCN1c1ccc(C2CN(C(=O)N3CC4(CC(c5nnc(C6CC6)[nH]5)C4)C3)C2)cc1 [Example 395, (2S)-1-[4-[1-[6-(5-cyclopropyl-4H-1,2,4-triazol-3-yl)-2-azaspiro[3.3]heptane-2-carbonyl]azetidin-3-yl]phenyl]-4,4-difluoro-piperidine-2-carboxamide]",1.28
9,"O=C(N1CC(c2cnc(N3CC[C@H](C(F)(F)F)C3)nc2)C1)N1CC2(CC(c3nc(C4CC4)n[nH]3)C2)C1 (single isomer, unassigned) [compound 266]",2.93
10,O=C(N1CC(c2cnc(C3(C(F)(F)F)CC3)cn2)C1)N1CC2(CC(c3nnc(C4CC4)[nH]3)C2)C1 [compound 233],13.8
11,O=C(N1CC(CNS(=O)(=O)c2ccc(C(F)(F)F)cc2)C1)N1CC2(CC(c3nnc(C4(O)CC4)[nH]3)C2)C1 [compound 210],482
12,Cc1cc(C2CC2)nn1CC1CC2(C1)CN(C(=O)N1CC3(CC(c4nc(C5CC5)n[nH]4)C3)C1)C2 [compound 847],0.53
13,O=C(N1CC2(CC(Cn3cnc(C(F)(F)F)n3)C2)C1)N1CC2(CC(c3nc(C4CC(F)(F)C4)n[nH]3)C2)C1 [compound 441],414
14,"NC1(c2nnc(C3CC4(C3)CN(C(=O)N3CC5(CC(Cc6ccc(C(F)(F)F)cn6)C5)C3)C4)[nH]2)CC1 [Example 948, [6-[5-(1-aminocyclopropyl)-4H-1,2,4-triazol-3-yl]-2-azaspiro[3.3]heptan-2-yl]-[6-[[5-(trifluoromethyl)-2-pyridyl]methyl]-2-azaspiro[3.3]heptan-2-yl]methanone]",2.35
15,Cn1cc(C(F)(F)F)c(CC2CC3(C2)CN(C(=O)N2CC4(CC(c5nc(C6CC6)n[nH]5)C4)C2)C3)n1 [compound 479],0.18
16,O=C(N1CC2(CC(CNC3CS(=O)(=O)C3)C2)C1)N1CC2(CC(c3nnc(C4CC4)[nH]3)C2)C1 [compound 364],377
17,O=C(N1CC2(CC(Cc3cnc(C(F)(F)F)nc3)C2)C1)N1CC2(CC(c3nnc(C4CC4)[nH]3)C2)C1 [compound 20],0.74
18,O=C(N1CC2(CC(Cc3cc(F)cc(C(F)(F)F)c3)C2)C1)N1CC2(CC(c3nnc(C4CC4)[nH]3)C2)C1 [compound 121],0.01
19,O=C(N1CCN(Cc2ccc(C(F)(F)F)nc2)CC1)N1CC2(CC(c3nnc(C4CC4)[nH]3)C2)C1 [Example 842],133

row,Structure (SMILES),IC50 [nM]
1,O=C(N1CC2(CC(CNC3(C(F)(F)F)CC3)C2)C1)N1CC2(CC(c3ncn[nH]3)C2)C1 [compound 983],2180
2,N=S(=O)(c1cccc(OC2CC3(C2)CN(C(=O)N2CC4(CC(c5nc(C6CC6)n[nH]5)C4)C2)C3)c1)C(F)(F)F (centres unmarked) [compound 848],0.67
3,O=C(N1CC2(CC(CNC3(C(F)(F)F)COC3)C2)C1)N1CC2(CC(c3nnc(C4CC4)[nH]3)C2)C1 [compound 354],5.39
4,CS(=O)(=O)c1ccc(CC2CC3(C2)CN(C(=O)N2CC4(CC(c5nnc(C6CC6)[nH]5)C4)C2)C3)c(F)c1 [compound 130],0.09
5,O=C(N1CC2(CC(c3nc(C4CC4)n[nH]3)C2)C1)N1CC2(CCN(Cc3ccc(C(F)(F)F)nc3)C2)C1 [compound 804],7.16
6,O=C(N1CC2(CC(c3ccc(S(=O)(=O)C(F)(F)F)cc3)C2)C1)N1CC2(CC(c3nnc(C4CC4)[nH]3)C2)C1 [compound 413],0.34
7,CS(=O)(=O)C1(c2ccc(C3CN(C(=O)N4CC5(CC(c6nc(C7(O)CC7)n[nH]6)C5)C4)C3)cc2)CC1 [compound 790],9.68
8,Cc1cc(C)n(C23CC(C4CN(C(=O)N5CC6(CC(c7nc(C8CC8)n[nH]7)C6)C5)C4)(C2)C3)n1 [compound 725],46.6
9,O=C(N1CC2(CC(Oc3ncc(C(F)(F)F)cc3F)C2)C1)N1CC2(CC(c3nc(C4CC4)n[nH]3)C2)C1 [compound 665],0.23
10,O=C(N1CC(OCc2ccc(C(F)(F)F)cc2F)C1)N1CC2(CC(c3nnc(C(O)C(F)(F)F)[nH]3)C2)C1 (centres unmarked) [compound 336],55.8
11,N=S(=O)(c1ccc(CC2CC3(C2)CN(C(=O)N2CC4(CC(c5nc(C6CC6)n[nH]5)C4)C2)C3)nc1)C(F)(F)F (centres unmarked) [compound 739],1.26
12,O=C(N1CC2(CC(c3nnc(C4CC4)[nH]3)C2)C1)N1CC2(CN(Cc3ncc(C(F)(F)F)cn3)C2)C1 [compound 161],78.8
13,N=S(=O)(c1ccc(CC2CC3(C2)CN(C(=O)N2CC4(CC(c5nc(C6COC6)n[nH]5)C4)C2)C3)cc1)C(F)(F)F (centres unmarked) [compound 782],17.8
14,CC(C)(Oc1ccc(C2CN(C(=O)N3CC4(CC(c5nnc(C6(O)CC6)[nH]5)C4)C3)C2)cc1)C(F)(F)F [compound 368],0.17
15,O=C(N1CC2(CC(c3nnc(C4CC4)[nH]3)C2)C1)N1CC2(C1)CN(S(=O)(=O)c1ccccc1C(F)(F)F)C2 [compound 96],2.94
16,Cc1c(CN2CC3(C2)CN(C(=O)N2CC4(CC(c5nc(C6CC6)n[nH]5)C4)C2)C3)cnn1CC(F)(F)F [compound 640],43.7
17,O=C(N1CC2(CC(Cc3cc(C(F)(F)F)ccn3)C2)C1)N1CC2(CC(c3ncn[nH]3)C2)C1 [compound 985],2990
18,O=C(N1CC2(CC(c3nc(C4CC4)n[nH]3)C2)C1)N1CC2(CN(Cc3noc(C(F)(F)F)n3)C2)C1 [compound 957],97.3
